The nature of series [1]: Stability of the compounds: buffer hydrolysis (half-times, shelf-life). It is filed as physicochemical. To be noted: buffer, 50 °C. As to the method:
The stability of the test compounds were tested with buffer hydrolyses. The ionic strength (µ) of the buffers was 0.5, the pH-values used 4.2, 6.0, 7.4 and 9.0 and the temperatures used 37°C, 50 °C, 60 °C and 70 °C.
The half-times T½ calculated on basis of the degradation constant k obtained for each studied compound (T½=0.693/k; k = 2.303 x kk, wherein kk is the angular coefficient of the plot which illustrates the logarithm of the remaining ester as a function of time) in a buffer solution of said pH, are indicated in the Table I below, which values refer to half-times at 37°C.
The storage stability of the derivatives under different storage conditions may be estimated by determining the degradation constants at different temperatures and calculating the degradation constant k at the desired temperature from the equation of the plot corresponding to the Arrhenius equation (1), wherein log k is given as a function of [1/T]. Log k = Log A -(Ea)/(2.303R)x(1)/(T) [formula]
From the degradation constant (k) obtained at the desired temperature the shelf-life-time t10% (t10% = 0.104/k) which indicates the time during which 10% of the drug has degraded may be calculated. By way of example it may be mentioned that the t10%-time of O,O'-dipropionyl (1,4-xylylene) bispilocarpate at 4 °C is almost 500 days.

Series [2] is described as follows: Enzyme hydrolysis in plasma/buffer pH 7.4 mixture (80%-20%). It is filed as in vitro ADME. To be noted: 80% plasma/buffer; plasma/buffer pH 7.4 (80%-20%), 37°C; read-out: half-times (T½) in plasma (80%), 37°C. As for the experimental part: The half-times of enzyme hydrolysis of the novel bispilocarpates according to the invention and of known pilocarpic acid diesters were determined in a plasma/buffer pH 7.4-mixture (80%-20%) at 37°C. The degradation constants (k) for the compounds tested and determined from the plot showing the logarithm of remaining diester as a function of time and the half-lives T½ are shown in the Table II below. From the results it may be seen that in […] the stable test compound degrades under the influence of an enzyme (esterase) to a O,O'-dihydrogen bispilocarpate intermediate, which spontaneously degrades at pH 7.40 to pilocarpine. Consequently the effect of the bispilocarpate intermediate on the rate of formation of pilocarpine is very significant. The formation of pilocarpine was almost complete irrespective of the epimerization possibility of the intermediate. The amount of isopilocarpine formed varied from 0 to 10%, as also the pilocarpine formed epimerized, if the duration of hydrolysis was very long.

A short description of series [3]: pKa-value determination by titration in a water-ethanol mixture (50%-50%). It is filed as physicochemical. Particulars: water-ethanol 50:50; titration in water-ethanol mixture (50%-50%).
Series [4] in a line: Lipophilicity: partition coefficient (octanol-buffer) and capacity factor by RP-HPLC. Type of series: physicochemical. Particulars: pH 5.0.
The conditions of series [5]: administered locally as eyedrops; cited from earlier work.
Series [6] is described as follows: Corneal permeability in a diffusion chamber. Type of series: in vitro ADME, rabbit. Particulars: rabbit eye cornea, diffusion chamber, epithelium side to endothelium side; read-out: Permeability coefficient Papp. From the text:
The corneal permeability of pilocarpine hydrochloride and its most promising prodrug derivatives as evaluated from the tests described above were studied in a diffusion chamber, wherein the migration of the compound from the delivering phase (epithelium side) thorugh the cornea to the acceptor side (endothelium side) of the diffusion chamber. In the study, rabbit eye cornea was used. From the samples taken from the acceptor side of the diffusion chamber, both the concentration of the prodrug and the liberated drug were determined in the acceptor phase with HPLC. Thus the rate of degradation of the prodrug in the cornea was determined. The permeability coefficients (Papp, cm/s) calculated from the permeability rate (μmol/min), their […] deviations (RSD) and the number of tests, are given in the Table II below.

The nature of series [7]: Lipophilicity: partition coefficient (octanol-buffer) and capacity factor by RP-HPLC. It is filed as physicochemical. Particulars: rp-hplc; reverse phase HPLC, 22°C; read-out: Capacity factor (22°C) k' (converted). From the text:
The lipophilicity of the compounds were studied by determining the partition coefficients (P) of the compounds at a pH of 7.40. The measurements were made either in an octanol-buffer mixture by determining the concentration of the compound to be studied in the buffer phase by HPLC. The partition coefficients of the very lipophilic compounds were, however, determined by reverse phase (RP) liquid chromatography (HPLC) from the retention time (Beckmann 116 pump and 166 UV detector; Marathon autom. sample feeder). […] From the results it can be seen that the compounds of the invention are considerably more lipophilic than the pilocarpine.

The values below come from patent publication EP0559700B1, “NOVEL PILOCARPINE DERIVATIVES AND PROCESS FOR THEIR PREPARATION” (Santen Oy, priority 1990, dated 1992).

As a reminder, the pKa is the pH at which an ionisable group is half protonated. One may read the logD as the decadic logarithm of the distribution of all forms, ionised or not, between an organic phase and buffer at a given pH. A higher logD goes with higher lipophilicity. A word on the Papp: it is a coefficient for how fast a substance crosses the barrier.

For `CC[C@H](C(=O)OCCCCCCOC(=O)[C@@H](CC)[C@H](COC(=O)C1CC1)Cc1cncn1C)[C@H](COC(=O)C1CC1)Cc1cncn1C` [Example 20, O,O'-Dicyclopropylcarbonyl (1,6-hexylene) bispilocarpate], the half-life in series [1] (pH 4.2, pH 4.20, read-out: Chemical hydrolysis t½, pH 4.20 (converted)) is 134 days; in series [1] (pH 7.4, pH 7.40, read-out: Chemical hydrolysis t½, pH 7.40 (converted)), 27.7 days; in series [1] (pH 6.00, read-out: Chemical hydrolysis t½, pH 6.00 (converted)) it was 142 days; in series [2] it was 0.0104 days. The pKa in series [3] amounted to 6. Further, the log distribution coefficient (logD) in series [4] was 0.88.
Consider `CC[C@@H]1C(=O)OC[C@@H]1Cc1cncn1C` [Pilocarpine, (3S-cis)-3-ethyl-dihydro-4-[(1-methyl-1H-imidazol-5-yl)methyl]-2(3H)-furanone], for which, in series [5], the “pilocarpine dose absorbed by the eye” value was “about 1%” and the “pilocarpine dose absorbed in the blood stream” value is reported as “about 70%”. The Papp in series [6] was determined as 4.1 ×10⁻⁶ cm/s. Also, the chromatographic logP in series [7] was -0.392.
